The values below are quoted from earlier work in US6703389B2, “Method of treating chronic pain” (Pharmacia & Upjohn Company, priority 1999, dated 2004).

The subject of data set [1] is norepinephrine reuptake compared to serotonin reuptake. The conditions noted are these: rat brain synaptosomes, literature.
For data set [2] the following is noted: literature (Leonard 1997).
The conditions of data set [3]: mice, literature (Brunello and Racagni 1998).

SMILES strings stand for the structures.

`CNCC(O)CC12CCC(c3ccccc31)c1ccccc12` (stereo not drawn) [oxaprotiline]: in data set [1], the “pharmacological selectivity for inhibiting norepinephrine reuptake compared to serotonin reuptake, ratio of Ki values” is recorded as “about 4166”.

For the compound `CCOc1ccccc1OC(c1ccccc1)C1CNCCO1` (racemic) [Reboxetine, 2-[(2-ethoxyphenoxy)(phenyl)methyl]morpholine], the “effect in the 8-OH-DPAT hypothermia test” value in data set [2] is on record as “ineffective”. Also, the “effect on resperine-induced blepharospasm and hypothermia” value in data set [3] was “prevent”.
